Values belong to the compound of their own block, whether it stands above or below them.
Biological target: T1, human FFAR1 (GPR40) (Homo sapiens, UniProt O14842)
T1 construct: Flag; expressed in transfected cells; host or cells: HEK293T
Experiment: NFAT-RE-based reporter gene activity assay (Dual-Glo luciferase) for GPR40 agonistic activity in co-transfected HEK293T cells
Format: cell-based
Conditions: 4-hour treatment; for Efficacy (%): class symbols
From the text: The pcDNA3.0-flag-FFAR1 (GPR40) plasmid was constructed using conventional molecular cloning methods. The main steps were as follows: The full-length cDNA sequence of human FFAR1 (GPR40) (NM_005303.3) was inserted into the HindIII and XbaI restriction sites of the pcDNA3.0 vector via PCR technology, resulting in the pcDNA3.0-flag-FFAR1 (GPR40) plasmid; pGL4.30 [luc2P NFAT-RE] (# E8481) and pRL-TK (#E2241) plasmids were both purchased from Promega; the plasmids were transformed into DH5α E. coli using the CaCl2 method, further cultured and amplified, and then purified using a plasmid extraction kit (TIANGEN, # DP117) to obtain the corresponding plasmid DNA.
HEK293T cells were seeded in a 96-well plate at a density of 1 × 10^4/well one day prior to plasmid transfection. Cell transfection was performed according to the instructions of the transfection reagent FuGENE® HD (Promega, # E2311). The main steps were as follows: Taking one well as an example, plasmids pcDNA3.0-flag-FFAR1 (GPR40), pGL4.30 [luc2P NFAT-RE], and pRL-TK were added at ratios of 50 ng, 50 ng, and 5 ng, respectively, into 10 µL of Opti-MEM™ I medium (Gibco, #11058021) and mixed thoroughly; then, 0.2 µL of FuGENE® HD was added, mixed thoroughly, and allowed to stand at room temperature for 5 minutes; finally, this 10 µL mixture was added to the cell well containing 100 µL of culture medium. 24 hours after co-transfection, the compounds were serially diluted at half-logarithmic intervals with 1 µM as the highest concentration, resulting in 10 concentration gradients, which were added to the cell culture medium for a 4-hour treatment.
After 4 hours of compound treatment, the cells were assayed according to the instructions of the Dual-Glo® Luciferase Assay System (Promega, # E2940). The main steps were as follows: 50 µL of culture medium was aspirated from each well and discarded, followed by the addition of 50 µL of Dual-Glo® Luciferase Reagent, and the mixture was shaken at room temperature for 10 minutes. Then, 80 µL of the lysate reaction solution was transferred to a white opaque optiPlate-96 well plate, and the luminescence signal of Firefly luciferase (Firefly-Luc) was measured using an MD i3x multifunctional microplate reader. Subsequently, 40 µL of Dual-Glo® Stop & Glo® Reagent was added, and the mixture was shaken at room temperature for 10 minutes. Finally, the luminescence signal of Renilla luciferase (Renilla-Luc) was measured using the MD i3x multifunctional microplate reader. The ratio of Firefly-Luc/Renilla-Luc was used as the compound's agonistic activity toward GPR40, and normalization was performed using the ratio of the solvent DMSO group. A dose-response curve was fitted using a four-parameter model with GraphPad Prism 8.0 software to calculate the EC50 value.

T1 sequence (O14842 whole entry): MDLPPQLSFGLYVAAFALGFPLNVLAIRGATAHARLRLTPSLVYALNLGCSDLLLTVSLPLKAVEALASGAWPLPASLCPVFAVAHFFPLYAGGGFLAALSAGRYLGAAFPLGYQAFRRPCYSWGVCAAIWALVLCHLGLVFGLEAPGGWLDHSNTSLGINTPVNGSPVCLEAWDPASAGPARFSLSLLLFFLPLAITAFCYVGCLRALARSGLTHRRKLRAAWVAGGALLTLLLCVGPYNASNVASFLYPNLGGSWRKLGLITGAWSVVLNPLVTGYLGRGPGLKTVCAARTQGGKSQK

Structure (SMILES): COc1cccc(N2CCC(c3oc4cc([C@@H](CC(=O)O)C5CC5)ccc4c3C(OCC(C)C)c3cccc(F)c3)CC2)c1 (stereo partly drawn) [Compound 430]
EC50: 100 to 500 nM
Efficacy (%): ††† (Efficacy (%) > 150)

EC50: 100 to 500 nM
Efficacy (%): † (100 ≥ Efficacy (%) > 50)
Structure (SMILES): CCNC(=O)c1c(C2CCN(c3cc(OC)ccc3F)CC2)oc2cc(C(CC(=O)O)C3CC3)ccc12 (stereo not drawn) [Compound 312]

Structure (SMILES): COc1cccc(NC(=O)c2c(C3CCN(c4cccc(OC)c4)CC3)oc3cc(C(CC(=O)O)C4CC4)ccc23)c1 (stereo not drawn) [Compound 245]
EC50: 100 to 500 nM
Efficacy (%): †† (150 ≥ Efficacy (%) > 100)

Structure (SMILES): COc1ccnc(N2CCC(c3oc4cc(C(CC(=O)O)C5CC5)ccc4c3-c3cnn(C(C)(C)C)c3)CC2)c1 (stereo not drawn) [Compound 83]
EC50: 100 to 500 nM
Efficacy (%): † (100 ≥ Efficacy (%) > 50)

Structure (SMILES): COc1cccc(N2CCC(c3oc4cc([C@@H](CC(=O)O)C5CC5)ccc4c3C(=O)Nc3cc(OC)ccc3F)CC2)c1 [Compound 260]
EC50: 10 to 100 nM
Efficacy (%): ††† (Efficacy (%) > 150)

Structure (SMILES): COc1cccc(N2CCC(c3oc4cc([C@@H](CC(=O)O)C5CC5)ccc4c3C(=O)Nc3cccc(C)c3)CC2)c1 [Compound 242]
EC50: 100 to 500 nM
Efficacy (%): †† (150 ≥ Efficacy (%) > 100)

Structure (SMILES): COc1ccc(F)c(N2CCC(c3oc4cc([C@H](C5CC5)C(F)C(=O)O)ccc4c3-c3cccc(C(C)(C)C)c3)CC2)c1 (stereo partly drawn) [Compound 219]
EC50: 10 to 100 nM
Efficacy (%): † (100 ≥ Efficacy (%) > 50)

Structure (SMILES): COc1ccc(F)c(N2CCC(c3oc4cc(C(CC(=O)O)C5CC5)ccc4c3-c3cccc(NCC(C)(C)C)c3)CC2)c1 (stereo not drawn) [Compound 188]
EC50: 100 to 500 nM
Efficacy (%): †† (150 ≥ Efficacy (%) > 100)

Structure (SMILES): COc1cccc(N2CCC(c3oc4cc([C@@H](CC(=O)O)C5CC5)ccc4c3-c3nnc(C(C)(C)C(F)(F)F)o3)CC2)c1 [Compound 49]
EC50: ≤ 10 nM
Efficacy (%): †† (150 ≥ Efficacy (%) > 100)

Structure (SMILES): COc1cccc(N2CCC(c3oc4cc(C(CC(=O)O)C5CC5)ccc4c3-c3cn(C(C)C)cn3)CC2)c1 (stereo not drawn) [Compound 104]
EC50: > 500 nM
Efficacy (%): †† (150 ≥ Efficacy (%) > 100)

Structure (SMILES): COc1cccc(N2CCC(c3oc4cc(CC(C)C(=O)O)ccc4c3-c3cnn(C(C)(C)C)c3)CC2)c1 (stereo not drawn) [Compound 60]
EC50: 100 to 500 nM
Efficacy (%): †† (150 ≥ Efficacy (%) > 100)

Structure (SMILES): O=C(O)C[C@H](c1ccc2c(C(=O)Nc3cc(F)ccc3Cl)c(C3CCN(c4ccc5c(c4)OCO5)CC3)oc2c1)C1CC1 [Compound 333]
EC50: ≤ 10 nM
Efficacy (%): †† (150 ≥ Efficacy (%) > 100)

Structure (SMILES): CCC(Cc1ccc2c(-c3cnn(C(C)(C)C)c3)c(C3CCN(c4cccc(OC)c4)CC3)oc2c1)C(=O)O (stereo not drawn) [Compound 61]
EC50: 100 to 500 nM
Efficacy (%): †† (150 ≥ Efficacy (%) > 100)

Structure (SMILES): CCCC(C)(C)c1nnc(-c2c(C3CCN(c4cccc(OC)c4)CC3)oc3cc(C(CC(=O)O)C4CC4)ccc23)o1 (stereo not drawn) [Compound 129]
EC50: 10 to 100 nM
Efficacy (%): †† (150 ≥ Efficacy (%) > 100)

Structure (SMILES): CCC(c1ccccc1OC)N1CCC(c2oc3cc(C(CC(=O)O)C4CC4)ccc3c2C(=O)Nc2ccccc2F)CC1 (stereo not drawn) [Compound 326]
EC50: 100 to 500 nM
Efficacy (%): †† (150 ≥ Efficacy (%) > 100)

Structure (SMILES): COc1cccc(N2CCC(c3oc4cc([C@@H](CC(=O)O)C5CC5)ccc4c3C3OCC(C)(C)CO3)CC2)c1 [Compound 399]
EC50: 100 to 500 nM
Efficacy (%): †† (150 ≥ Efficacy (%) > 100)

Structure (SMILES): COc1cccc(N2CCC(c3oc4cc([C@@H](CC(=O)O)C5CC5)ccc4c3C(=O)Nc3cc(C)ccc3F)CC2)c1 [Compound 253]
EC50: ≤ 10 nM
Efficacy (%): ††† (Efficacy (%) > 150)

Structure (SMILES): COc1cccc(N2CCC(c3oc4cc(C(CC(=O)O)C5CC5)ccc4c3C(=O)Nc3nc4ccccc4s3)CC2)c1 (stereo not drawn) [Compound 297]
EC50: 100 to 500 nM
Efficacy (%): †† (150 ≥ Efficacy (%) > 100)

Structure (SMILES): COc1cccc(N2CCC(c3oc4cc([C@@H](CC(=O)O)C5CC5)ccc4c3C(O)C(C)(C)C)CC2)c1 (stereo partly drawn) [Compound 423]
EC50: 100 to 500 nM
Efficacy (%): † (100 ≥ Efficacy (%) > 50)

Structure (SMILES): COc1cccc(N2CCC(c3oc4cc(C(CC(=O)O)C5CC5)ccc4c3C(=O)Nc3c(F)cccc3Br)CC2)c1 (stereo not drawn) [Compound 264]
EC50: 100 to 500 nM
Efficacy (%): †† (150 ≥ Efficacy (%) > 100)

Structure (SMILES): COc1cccc(N2CCC(c3oc4cc([C@@H](CC(=O)O)C5CC5)ccc4c3C(OCC(C)C)c3ccc(F)cc3)CC2)c1 (stereo partly drawn) [Compound 431]
EC50: 100 to 500 nM
Efficacy (%): †† (150 ≥ Efficacy (%) > 100)

Structure (SMILES): COc1ccc(F)c(N2CCC(c3oc4cc([C@H](CC(=O)O)C5CC5)ccc4c3-c3ccc(C(C)(C)C)cc3)CC2)c1 [Compound 170]
EC50: 100 to 500 nM
Efficacy (%): †† (150 ≥ Efficacy (%) > 100)

Structure (SMILES): COc1cccc(N2CCC(c3oc4cc(C(CC(=O)O)C5CC5)ccc4c3-c3nnc(C(C)(C)CC4CCCCC4)o3)CC2)c1 (stereo not drawn) [Compound 135]
EC50: 10 to 100 nM
Efficacy (%): †† (150 ≥ Efficacy (%) > 100)

Structure (SMILES): COc1cccc(N2CCC(c3oc4cc(C(CC(=O)O)C5CC5)ccc4c3C(=O)Nc3nc(C(C)(C)C)cs3)CC2)c1 (stereo not drawn) [Compound 298]
EC50: 100 to 500 nM
Efficacy (%): †† (150 ≥ Efficacy (%) > 100)

Structure (SMILES): COc1cccc(N2CCC(c3oc4cc(C(CC(=O)O)C5CC5)ccc4c3C(=O)Nc3ccccc3C(F)(F)F)CC2)c1 (stereo not drawn) [Compound 237]
EC50: 10 to 100 nM
Efficacy (%): †† (150 ≥ Efficacy (%) > 100)

Structure (SMILES): COc1ccc(F)c(N2CCC(c3oc4cc([C@@H](CC(=O)O)C5CC5)ccc4c3-c3ccc(C(C)O)cc3)CC2)c1 (stereo partly drawn) [Compound 175]
EC50: > 500 nM
Efficacy (%): †† (150 ≥ Efficacy (%) > 100)

Structure (SMILES): COc1cccc(N2CCC(c3oc4cc([C@@H](CC(=O)O)C5CC5)ccc4c3C(=O)Nc3cc(-c4ccccc4)ccc3Cl)CC2)c1 [Compound 280]
EC50: 100 to 500 nM
Efficacy (%): †† (150 ≥ Efficacy (%) > 100)

Structure (SMILES): CC(C)(C)c1ccc(-c2c(C3CCN(c4ccc5ncoc5c4)CC3)oc3cc(C(CC(=O)O)C4CC4)ccc23)cc1 (stereo not drawn) [Compound 214]
EC50: 100 to 500 nM
Efficacy (%): † (100 ≥ Efficacy (%) > 50)

Structure (SMILES): COc1cccc(N2CCC(c3oc4cc([C@@H](CC(=O)O)C5CC5)ccc4c3C(=O)NC34CC5CC(C)(CC(C)(C5)C3)C4)CC2)c1 [Compound 354]
EC50: 100 to 500 nM
Efficacy (%): †† (150 ≥ Efficacy (%) > 100)

Structure (SMILES): CCc1ccc(Cl)c(NC(=O)c2c(C3CCN(c4ccc5c(c4)OCO5)CC3)oc3cc([C@@H](CC(=O)O)C4CC4)ccc23)c1 [Compound 337]
EC50: ≤ 10 nM
Efficacy (%): †† (150 ≥ Efficacy (%) > 100)

Structure (SMILES): COc1cccc(N2CCC(c3oc4cc([C@@H](CC(=O)O)C5CC5)ccc4c3C(=O)Nc3cc(OC)ccc3Cl)CC2)c1 [Compound 268]
EC50: ≤ 10 nM
Efficacy (%): †† (150 ≥ Efficacy (%) > 100)

Structure (SMILES): CNc1cccc(N2CCC(c3oc4cc(C(CC(=O)O)C5CC5)ccc4c3-c3ccc(C(C)(C)C)cc3)CC2)c1 (stereo not drawn) [Compound 24]
EC50: 100 to 500 nM
Efficacy (%): † (100 ≥ Efficacy (%) > 50)

Structure (SMILES): COc1cccc(N2CCC(c3oc4cc(C(CC(=O)O)C5CC5)ccc4c3C(=O)NC34CC(C3)C4)CC2)c1 (stereo not drawn) [Compound 345]
EC50: 100 to 500 nM
Efficacy (%): †† (150 ≥ Efficacy (%) > 100)

Structure (SMILES): COc1cccc(N2CCC(c3oc4cc(C(CC(=O)O)C5CC5)ccc4c3-c3noc(C(C)(C)C)n3)CC2)c1 (stereo not drawn) [Compound 122]
EC50: 10 to 100 nM
Efficacy (%): †† (150 ≥ Efficacy (%) > 100)

Structure (SMILES): COc1cccc(N2CCC(c3oc4cc(C(CC(=O)O)C5CC5)ccc4c3C(=O)Nc3ccc(F)cc3F)CC2)c1 (stereo not drawn) [Compound 255]
EC50: 100 to 500 nM
Efficacy (%): †† (150 ≥ Efficacy (%) > 100)

Structure (SMILES): COc1cccc(N2CCC(c3oc4cc(C(CC(=O)O)C5CC5)ccc4c3C(=O)NCc3ccccc3)CC2)c1 (stereo not drawn) [Compound 355]
EC50: 100 to 500 nM
Efficacy (%): †† (150 ≥ Efficacy (%) > 100)

Structure (SMILES): CCC(OCC(C)(C)C)c1c(C2CCN(c3cccc(OC)c3)CC2)oc2cc([C@@H](CC(=O)O)C3CC3)ccc12 (stereo partly drawn) [Compound 416]
EC50: 10 to 100 nM
Efficacy (%): †† (150 ≥ Efficacy (%) > 100)

Structure (SMILES): COc1cccc(N2CCC(c3oc4cc([C@@H](CC(=O)O)C5CC5)ccc4c3C(OCC(C)C)c3ccc(C)cc3)CC2)c1 (stereo partly drawn) [Compound 427]
EC50: 100 to 500 nM
Efficacy (%): ††† (Efficacy (%) > 150)

Structure (SMILES): COc1ccc(F)c(N2CCC(c3oc4cc(C(CC(=O)O)C5CC5)ccc4c3-c3ccccc3C)CC2)c1 (stereo not drawn) [Compound 159]
EC50: 100 to 500 nM
Efficacy (%): †† (150 ≥ Efficacy (%) > 100)
